Assay results published in paper PMC9993039, “Synthesis and radiolabelling of PSMA-targeted derivatives containing GYK/MVK cleavable linkers” (Royal Society Open Science, 2023).

Assays:
[1] = in vivo; cited from earlier work
Description: The purpose of this study is to report the synthesis and radiolabelling of new PSMA derivatives containing: (i) a PSMA-targeting vector, (ii) an albumin binder, namely 4-(p-iodophenyl)butyric acid, (iii) an amino acid sequence which could be specifically recognized and cleaved by renal brush border (RBB) enzymes, and (iv) a DOTA chelator which can be labelled with In-111 for imaging or Lu-177 for therapy. Previous studies reported that presence of an albumin-binding moiety increases blood residence time of the radiopharmaceutical agent, and ultimately leads to a higher accumulation of the PSMA ...

[2] = test system: metastatic castration-resistant prostate cancer; settings: cited from earlier work
Description: The prostate-specific membrane antigen (PSMA) is overexpressed in prostate cancer cells, and its expression increases with disease progression. PSMA is therefore an attractive target for TRT of prostate cancer. Currently, several compounds targeting this protein are being investigated for imaging and treatment of prostate cancer, with PSMA-617 advancing as a lead candidate (figure 1).

[3] = in vivo; cited from earlier work; remark: listed apart in the source
Description: In this study, we synthesized PSMA-targeted radiopharmaceuticals that combined an albumin binder and a cleavable linker to optimize their therapeutic efficacy. We selected the albumin-binder containing PSMA-617 derivative HTK01169 (figure 1), reported by Kuo et al., as a reference. [^177Lu]Lu-HTK01169 delivers an eightfold higher dose to the tumour than [^177Lu]Lu-PSMA-617, but also a 17-fold higher dose to the kidneys. The amino acid sequences Gly-Tyr-Lys (GYK) and Met-Val-Lys (MVK) were selected as the cleavable linkers. Effective cleavage of the MVK sequence in ^67/68Ga-labell ... || The purpose of this study is to report the synthesis and radiolabelling of new PSMA derivatives containing: (i) a PSMA-targeting vector, (ii) an albumin binder, namely 4-(p-iodophenyl)butyric acid, (iii) an amino acid sequence which could be specifically recognized and cleaved by renal brush border (RBB) enzymes, and (iv) a DOTA chelator which can be labelled with In-111 for imaging or Lu-177 for therapy. Previous studies reported that presence of an albumin-binding moiety increases blood residence time of the radiopharmaceutical agent, and ultimately leads to a higher accumulation of the PSMA ...

[4] = test system: renal brush border (RBB) enzymes; settings: Cy5 labelled model peptide; cited from earlier work
Description: High kidney uptake of radiopharmaceuticals can usually be explained by the long residence time of radiometabolites generated after lysosomal proteolysis. This process is followed by glomerular filtration and reabsorption of the radiometabolites in renal cells. By inserting a linker which is specifically cleaved by enzymes on the brush border membrane located in the lumen of the proximal renal tubule, the radiometal-chelator moiety can be rapidly excreted via the bladder while the peptide remains in the kidneys. The MVK sequence was initially conjugated to antibody fragments by Uehara et ...

[5] = type: in vitro ADME, mouse
Protocol: Stability was determined for both the In-111 and Lu-177 labelled compounds by mixing 20 µl of radiolabelled sample (approx. 5 MBq) with 80 µl phosphate buffered saline (PBS) (0.01 M, pH 7.4), or mixing 70 µl of radiolabelled sample (approx. 20 MBq) with 330 µl of mouse serum, and heating at 37°C for up to 24 h. After incubation, 50 µl of the mouse serum solution is added to a separate vial containing acetonitrile (50 µl) and the sample is centrifuged for 20 min. The supernatant and precipitate are separated, and the activity is measured to determine the binding to serum proteins. The supernatant is then analysed by radio-HPLC. The PBS solution is loaded directly onto the radio-HPLC.

[6] = test system: renal brush border enzymes; settings: labelled with gallium-68; cited from earlier work
Description: We hypothesized that this radiolabelled impurity might come from the radiation-induced oxidation of the methionine residue of the cleavable linker. Bendre et al. recently synthesized DOTA-AmBz-M(O)VK(HTK01166)-OH, the oxidized analogue of the PSMA-targeted derivative DOTA-AmBz-MVK(HTK01166)-OH, and performed labelling with gallium-68. They observed that the oxidized product was not cleaved by the renal brush border enzymes. It confirms that oxidation of the methionine is undesirable, as it leads to loss of enzyme recognition and consequently less cleavage of the conjugate. This radiolys ...

[7] = plus standard of care, versus standard of care, ref NCT03511664

[^177Lu]Lu-PSMA-617
uptake in the kidneys at 1 h [1]: approximately 10 % IA g^−1 | uptake in the kidneys at 24 h [1]: less than 1 % IA g^−1 | patients who do not respond significantly to the treatment [2]: approximately 30% | incidence of adverse effects (grade 3 or 4) ([2]; human, in vivo): 52.7% | response rates ([2]; patients): over 50% | imaging-based progression free survival (median) [2, 7]: 8.7 months | overall survival (median) [2, 7]: 15.3 months

O=C(O)CC[C@H](NC(=O)N[C@@H](CCCCNC(=O)[C@H](Cc1ccc2ccccc2c1)NC(=O)[C@H]1CC[C@H](CNC(=O)[C@H](CCCCNC(=O)CN2CCN(CC(=O)O)CCN(CC(=O)O)CCN(CC(=O)O)CC2)NC(=O)[C@H](CCC(=O)O)NC(=O)CCCc2ccc(I)cc2)CC1)C(=O)O)C(=O)O [[^177Lu]Lu-HTK01169, metal not drawn]
radiation dose to the kidneys relative to [177Lu]Lu-PSMA-617 [3]: 17 fold | radiation dose to the tumour relative to [177Lu]Lu-PSMA-617 [3]: eightfold

H-GGGYK(Cy5)-NH2 [Cy5 labelled model peptide with GYK linker]
cleavage on incubation with RBB enzymes [4]: quantitative cleavage

N[C@@H](CCCCNC(=O)CN1CCN(CC(=O)O)CCN(CC(=O)O)CCN(CC(=O)O)CC1)C(=O)N[C@@H](Cc1ccc(O)cc1)C(=O)NCC(=O)NCCCC[C@H](NC(=O)[C@H](CCC(=O)O)NC(=O)CCCc1ccc(I)cc1)C(=O)NC[C@H]1CC[C@H](C(=O)N[C@@H](Cc2ccc3ccccc3c2)C(=O)NCCCC[C@H](NC(=O)N[C@@H](CCC(=O)O)C(=O)O)C(=O)O)CC1 [[^111In]-7] [metal not drawn]
peak at 2.9 min (radiolabelled side-product) in mouse serum [5]: 62%

DOTA-AmBz-M(O)VK(HTK01166)-OH
cleavage by renal brush border enzymes [6]: not cleaved

H-GGGFK(Cy5)-NH2 [Cy5 labelled model peptide with GFK linker]
cleavage on incubation with RBB enzymes [4]: 82%
